Reference: patent publication US20240024216A1, “METHODS AND MATERIALS FOR TREATING HAIR LOSS” (The Penn State Research Foundation, priority 2021, published 2024)

Columns and labels:
[1] = system: keratinocytes co-cultured with SCs (10:1); test: Co-culture scratch assay, keratinocytes with Schwann cells; format: cell-based, human
Experimental: To determine the influence of Schwann cells and fibroblast on keratinocytes migration and proliferation wound healing scratch assay was conducted. The co-culture experiment performed in Keratinocytes to either Schwann cells or fibroblasts in a ratio of 10:1 with same proposition of their respective medium were seeded on 96-well ImageLock microplate for 6 hours and the wells were pre-coated with collagen-I plate. For the drug treatment cells were pretreated with 4-AP prior to coating for 16-18 hours. Next, the wound scratch was created and treated cells with and without 4-AP in medium. Imaged for every hour until 24 hour and analyzed for percent of closure as described above procedure.

[2] = system: keratinocytes, Schwann cells and fibroblast; test: Cell viability MTT assay; format: cell-based, human; conditions: concentrations of 4-AP used in vitro; 24 hours
Experimental: The keratinocytes, Schwann cells and fibroblast were culture on 96-well plates, the wells were pre-coated with respective coating matrix in complete growth medium and incubated cells for 12-18 hours at 37° C. in 5% CO2 incubator. Cells were washed with PBS and added basal Schwann cells/fibroblast/keratinocytes medium to starve, then incubated for 4 hours at 37° C. with 5% CO2. After the incubation period, various concentrations of 4-AP (concentrations ranging from 1 to 10000 μM) in 100 μL containing respective medium's (complete keratinocytes, Schwann cells and fibroblast medium), cells were incubated either 24 hours at +37° C. and 5% CO2 incubator. After completion of incubation time, 10 μL of the MTT labeling reagent (final concentration 0.5 mg/ml) was added to each well and incubate at +37° C. for 4 hours in a humidified atmosphere. Then, 100 μL of the solubilization solution into each well and allow the plate to stand in the incubator overnight or until the formazan crystals had dissolved. […] The formazan absorbance was read using wavelength of 550 nm in a plate reader. The color of optical density (OD) is directly propositional to number of live cells. The percentage of live keratinocytes/Schwann cells/fibroblast cells was determined using the following formula. […]

[3] = system: C57BL/6 mice; test: Full thickness excisional splinted wound model: wound closure and histomorphometry; format: in vivo; conditions: for wound closure: daily systemic 4-AP
Excerpt: The effect of 4-AP in promoting cutaneous wound healing and tissue regeneration was investigated using a full thickness excisional wound model (FIG. 3A). Excisional wounds (5 mm) were splinted with silicone rings to prevent wound contraction, in 10-wk-old male C57BL/6 mice, which were then randomized and treated with either saline or systemic 4-AP (dosage to correspond to human dosage) daily for 14 days. Wounds were monitored by digital imaging for morphometry, percentage of wound healing, and tissue regeneration on days 3, 5, 7, 9, 12 and 14 post wound (PWD) (when tissue was harvested).
Male C57BL/6 (10 week) mice were purchased from the Jackson Laboratory (Bar Harbor, ME USA). Mice were anesthetized by intraperitoneal injection of ketamine (60 mg/kg) and xylazine (4 mg/kg) body weight, and the dorsal skin hair was removed using mechanical shaver and then, applied the hair removal cream. Skin was disinfected using 70% ethanol and betadine for 3 times. The dorsal skin was folded and raised cranially and caudally at midline using index fingers and thumbs, and place the animal in a lateral position and two 5-mm wounds created in their dorsal skin using sterile biopsy punch. A 5-mm-diameter silicone ring was then placed and sutured around the each wound to restrict contraction. After wound creation and sutured silicone ring, wound site was photographed, and wound surface was covered with a Tegaderm (3M) sterile transparent dressing. After surgery, mice was administered SR Buprenorphine (0.05 mg/kg) as a post-operative analgesia. The mice were randomized into the following two groups: a control group (vehicle control), which received 100 μl of saline, and a 4-AP group. In total […]/mouse/daily 4-AP in 90-110 μl of saline intraperitoneally (IP) was administered until day 14 post wound. Digital imaging of the wound was used was determined for each wound healing by quantification of wound area based on digital pictures taken from day 0 to day 14 (days 0, 3, 5, 7, 9, 12 and 14) post-surgery (FIG. 3A). Wound areas were measured in pixel using ImageJ-1.53e software (National Institutes of Health, USA) and normalized/corrected each wound area with reference scale and wound healing expressed as percentage with respect to day 0 wound, using following formula.
At the day 14 wound skin sample were collected after mice were euthanized using CO2 and skin samples were excised, either flash frozen or fixed in a buffered 4% formaldehyde solution at 4° C., overnight for samples to be embedded in paraffin and the wound skin paraffin blocks were processed into serially cut into […] sections on a Microtome (Leica RM2235, Germany). The wound skin sections were used for morphometric analysis and immunofluorescence staining. […] sectioned wound skin samples of day 14 were sections were deparaffinised using xylene and ethyl alcohol and stained with hematoxylin and eosin (H&E). To evaluate the epidermis thickness, and wound induced hair follicle formation, four randomly fields of each H&E-stained sections were imaged under a light microscope (Olympus BX53, Olympus, Tokyo, Japan) at 1000 magnification. The values of each mice were averaged, and then groups were compared. To measure the wound induced hair follicles, similar to above procedure, the number of hair follicles at dermis were counted and then average value calculated for each group. To understand the collagen formation, maturation and deposition Masson's trichome analysis were performed as per manufacture instructions (Sigma-Aldrich, Catalog No.: HT15-1KT).

SMILES: Nc1ccncc1 [4-AP, 4-aminopyridine]
- percentage of wound closure ([1]; at 15 hours, 80% in non-treated): 98%
- time to scratch closure ([1]; with 4-AP, 20 hours without treatment): ≤ 15 h
- cell viability [2]: not affected
- re-epithelialization of wound ([3]; by day 14): completely re-epithelialized
- wound closure ([3]; day 3 post wound): 22.35±0.30%
- collagen deposition in dermis (Masson's Trichrome) ([3]; day 14, compared to saline): elevated collagen deposition
- fold increase in WIHN ([3]; day 14, vs saline-treated mice): 1.8 fold
- wound closure ([3]; day 14 post wound): 98.24±0.10%
- thickness of newly formed epidermis (H&E) ([3]; day 14 wound tissue): 29.7 ± 1.3 µm
- mean number of hair follicles (wound-induced hair neogenesis) ([3]; day 14 wound tissue, H&E): 45
